Values quoted from earlier work, collected in patent US20150065426A1, “Testosterone Booster Transdermal Compositions” (Professional Compounding Centers Of America, priority 2013, published 2015).

Tests used:
[1] = men with elevated estradiol / hormone disorders
[2] = after the use of anastrozole for about 7 days

CC(C)(C#N)c1cc(Cn2cncn2)cc(C(C)(C)C#N)c1 [anastrozole, Anastrozole]
estradiol levels [1]: significant decrease | increase of natural testosterone levels [2]: ≤ 60%
